Molecules are shown by their SMILES. Read-outs that look alike come from different tables or passages of the source.

In the test the target is human DP2 (Homo sapiens (Human), UniProt Q9Y5Y4). Briefly: DP-2 Binding Inhibition Assay (3H-PGD2 binding to membranes of K562 cells expressing DP2). The note with it: inhibition of 3H-PGD2 binding. The protocol: DP-2 Binding Inhibition Assay
The coding sequence of human DP2 was introduced into the human Leukemic cell line K562 by electroporation and stable clones expressing DP2 were obtained by limiting dilution followed by cell surface staining with a rat monoclonal antibody specific for human DP2. Membranes were prepared from one of these DP2 expressing clones and used to determine the ability of compounds of the present invention to inhibit binding of prostaglandin D2 (PGD2) to its receptor DP2 in the presence of one or more of the following serum protein concentrations, 0.1% BSA, 1% HSA or 4% HSA, by the following procedure. Membranes (1.25 μg/well for 0.1% BSA and 6 μg/well for 1% or 4% HSA) were mixed with ^3H-labeled PGD2 and various concentrations of test compounds in 150 μL of binding buffer (50 mM Tris-HCl, pH 7.4, 40 mM MgCl2, 0.1% bovine serum albumin, 0.1% NaN3) in 96-well U-bottom polypropylene plates. After incubation for 60 minutes at room temperature, the assay was transferred to a filtration plate (#MAFB; Millipore Corporation, Bedford, Mass.), and washed three times with binding buffer. Radioactivity was measured by a scintillation counter (TopCount; PerkinElmer Life Sciences, Boston, Mass.). Nonspecific binding was determined by incubations in the presence of 1 μM unlabeled PGD2 or 5 μM of a known DP2 antagonist. EC50 values for inhibition of binding were determined for each compound tested from the inflexion point of a standard 4-parameter logistical curve fitted to the values obtained.

[1] abbreviates: read-out: EC50 (nM) 4% HSA, 4% HSA.
Setting [2] is: read-out: EC50 (Nm) 1% HSA, 1% HSA.

Sequence of human DP2 (Q9Y5Y4 whole entry): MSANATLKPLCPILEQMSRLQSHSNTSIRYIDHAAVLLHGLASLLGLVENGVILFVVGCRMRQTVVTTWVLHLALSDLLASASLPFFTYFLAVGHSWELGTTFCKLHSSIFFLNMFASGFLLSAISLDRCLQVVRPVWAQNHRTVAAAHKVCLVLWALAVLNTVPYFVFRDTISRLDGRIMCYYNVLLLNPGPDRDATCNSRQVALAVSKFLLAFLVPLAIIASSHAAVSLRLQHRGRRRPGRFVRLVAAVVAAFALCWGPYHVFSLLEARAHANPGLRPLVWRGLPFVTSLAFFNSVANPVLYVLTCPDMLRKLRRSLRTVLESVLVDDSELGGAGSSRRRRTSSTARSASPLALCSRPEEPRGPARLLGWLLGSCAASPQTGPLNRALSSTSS

Consider `N#Cc1cc2c(cc1Oc1ccc(C(=O)Nc3ccc(-c4ccccc4)cc3)cc1)OCCC2C(=O)O` (stereo not drawn) [Example 68, 7-(4-(Biphenyl-4-ylcarbamoyl)phenoxy)-6-cyanochroman-4-carboxylic acid], for which the EC50 under setting [1] came out at 206 nM.

`N#Cc1cc2c(cc1Oc1ccc(C(=O)Nc3ccc(-c4ccc(Cl)cc4)cc3)cc1)OCCC2C(=O)O` (stereo not drawn) [Example 69, 7-(4-(4′-Chlorobiphenyl-4-ylcarbamoyl)phenoxy)-6-cyanochroman-4-carboxylic acid]: the EC50 under setting [1] came out at 240 nM. In the case of `Cc1nccc(-c2cccc(NC(=O)c3ccc(Oc4cc5c(cc4C#N)C(C(=O)O)CCO5)cc3)c2)n1` (stereo not drawn) [Example 70, 6-Cyano-7-(4-(3-(2-methylpyrimidin-4-yl)phenylcarbamoyl)phenoxy)chroman-4-carboxylic acid], the EC50 under setting [1] worked out at 995 nM. On to `O=C(Nc1ccc(F)c(-c2ccc(Cl)cc2)c1)c1ccc(Oc2cc3c(cc2Cl)C(C(=O)O)CCO3)cc1` (stereo not drawn) [Example 71, 6-Chloro-7-(4-(4′-chloro-6-fluorobiphenyl-3-ylcarbamoyl)phenoxy)chroman-4-carboxylic acid], for which, under setting [1], the EC50 stood at 119 nM. As to `N#Cc1cc2c(cc1Oc1ccc(C(=O)NC3CCc4ccccc4C3)cc1)OCCC2C(=O)O` (stereo not drawn) [Example 72, 6-Cyano-7-(4-(1,2,3,4-tetrahydronaphthalen-2-ylcarbamoyl)phenoxy)chroman-4-carboxylic acid], under setting [2], the EC50 stood at 36.4 nM. On the same count and under the same terms, in the case of `N#Cc1cc2c(cc1Oc1ccc(C(=O)NC3Cc4ccc(Cl)cc4C3)cc1)OCCC2C(=O)O` (stereo not drawn) [Example 73, 7-(4-(5-Chloro-2,3-dihydro-1H-inden-2-ylcarbamoyl)phenoxy)-6-cyanochroman-4-carboxylic acid] it was 42.4 nM; in that of `N#Cc1cc2c(cc1Oc1ccc(C(=O)Nc3ccc(Cl)cc3)cc1)OCCC2C(=O)O` (stereo not drawn) [Example 74, 7-(4-(4-Chlorophenylcarbamoyl)phenoxy)-6-cyanochroman-4-carboxylic acid], 23.3 nM. For `N#Cc1cc2c(cc1Oc1ccc(C(=O)Nc3ccc(C(F)(F)F)cc3)cc1)OCCC2C(=O)O` (stereo not drawn) [Example 75, 6-Cyano-7-(4-(4-(trifluoromethyl)phenylcarbamoyl)phenoxy)chroman-4-carboxylic acid], the EC50 under setting [2] stood at 11.9 nM. Regarding `N#Cc1cc2c(cc1Oc1ccc(C(=O)Nc3ccc4ccccc4c3)cc1)OCCC2C(=O)O` (stereo not drawn) [Example 76, 6-Cyano-7-(4-(naphthalen-2-ylcarbamoyl)phenoxy)chroman-4-carboxylic acid], the EC50 under setting [2] was found to be 6.7 nM. Regarding `O=C(NCCCc1ccc(Cl)cc1)c1ccc(Oc2cc3c(cc2Cl)C(C(=O)O)CCO3)cc1` (stereo not drawn) [Example 77, Sodium 6-chloro-7-(4-(3-(4-chlorophenyl)propylcarbamoyl)phenoxy)chroman-4-carboxylate], under setting [1], the EC50 came out at 356 nM. Turning to `O=C(NCCCc1ccccc1)c1ccc(Oc2cc3c(cc2Cl)C(C(=O)O)CCO3)cc1` (stereo not drawn) [Example 78, Sodium 6-chloro-7-(4-(3-phenylpropylcarbamoyl)phenoxy)chroman-4-carboxylate], the EC50 under setting [1] worked out at 681 nM.

As to `O=C(NCCc1ccccc1Cl)c1ccc(Oc2cc3c(cc2Cl)C(C(=O)O)CCO3)cc1` (stereo not drawn) [Example 79, Sodium 6-chloro-7-(4-(2-chlorophenethylcarbamoyl)phenoxy)chroman-4-carboxylate], under setting [1], the EC50 was found to be 98.9 nM. `O=C(NCCc1c(Cl)cccc1Cl)c1ccc(Oc2cc3c(cc2Cl)C(C(=O)O)CCO3)cc1` (stereo not drawn) [Example 80, Sodium 6-chloro-7-(4-(2,6-dichlorophenethylcarbamoyl)phenoxy)chroman-4-carboxylate]: the EC50 under setting [1] was 165 nM. Still for that read-out and setting: under `O=C(NCCc1ccc(F)cc1F)c1ccc(Oc2cc3c(cc2Cl)C(C(=O)O)CCO3)cc1` (stereo not drawn) [Example 81, Sodium 6-chloro-7-(4-(2,4-difluorophenethylcarbamoyl)phenoxy)chroman-4-carboxylate] stands 191 nM; under `O=C(NCCc1c(F)cccc1Cl)c1ccc(Oc2cc3c(cc2Cl)C(C(=O)O)CCO3)cc1` (stereo not drawn) [Example 82, Sodium 6-chloro-7-(4-(2-chloro-6-fluorophenethylcarbamoyl)phenoxy)chroman-4-carboxylate], 473 nM; under `O=C(NCCc1cccc(O)c1)c1ccc(Oc2cc3c(cc2Cl)C(C(=O)O)CCO3)cc1` (stereo not drawn) [Example 83, Sodium 6-chloro-7-(4-(3-hydroxyphenethylcarbamoyl)phenoxy)chroman-4-carboxylate], 569 nM. Same read-out and setting: under `O=C(NCCc1ccc(O)cc1)c1ccc(Oc2cc3c(cc2Cl)C(C(=O)O)CCO3)cc1` (stereo not drawn) [Example 84, Sodium 6-chloro-7-(4-(4-hydroxyphenethylcarbamoyl)phenoxy)chroman-4-carboxylate] stands 1380 nM; under `O=C(NCCc1ccc(F)cc1)c1ccc(Oc2cc3c(cc2Cl)C(C(=O)O)CCO3)cc1` (stereo not drawn) [Example 85, Sodium 6-chloro-7-(4-(4-fluorophenethylcarbamoyl)phenoxy)chroman-4-carboxylate], 344 nM. Same read-out and setting: under `O=C(NCCc1cccc2ccccc12)c1ccc(Oc2cc3c(cc2Cl)C(C(=O)O)CCO3)cc1` (stereo not drawn) [Example 86, Sodium 6-chloro-7-(4-(2-(naphthalen-1-yl)ethylcarbamoyl)phenoxy)chroman-4-carboxylate] stands 126 nM.

For `O=C(NCCc1ccc2ccccc2c1)c1ccc(Oc2cc3c(cc2Cl)C(C(=O)O)CCO3)cc1` (stereo not drawn) [Example 87, Sodium 6-chloro-7-(4-(2-(naphthalen-2-yl)ethylcarbamoyl)phenoxy)chroman-4-carboxylate], under setting [1], the EC50 was 234 nM. Take `COc1ccc(OC)c(CCNC(=O)c2ccc(Oc3cc4c(cc3Cl)C(C(=O)O)CCO4)cc2)c1` (stereo not drawn) [Example 88, Sodium 6-chloro-7-(4-(2,5-dimethoxyphenethylcarbamoyl)phenoxy)chroman-4-carboxylate]: the EC50 under setting [1] was determined as 203 nM.

As for `COc1cccc(CCNC(=O)c2ccc(Oc3cc4c(cc3Cl)C(C(=O)O)CCO4)cc2)c1OC` (stereo not drawn) [Example 89, Sodium 6-chloro-7-(4-(2,3-dimethoxyphenethylcarbamoyl)phenoxy)chroman-4-carboxylate], under setting [1], the EC50 amounted to 146 nM. Turning to `COc1ccc(Br)cc1CCNC(=O)c1ccc(Oc2cc3c(cc2Cl)C(C(=O)O)CCO3)cc1` (stereo not drawn) [Example 90, Sodium 7-(4-(5-bromo-2-methoxyphenethylcarbamoyl)phenoxy)-6-chlorochroman-4-carboxylate], under setting [1], the EC50 was found to be 153 nM. Still for that read-out and setting: in the case of `O=C(NCCc1ccccc1Br)c1ccc(Oc2cc3c(cc2Cl)C(C(=O)O)CCO3)cc1` (stereo not drawn) [Example 91, Sodium 7-(4-(2-bromophenethylcarbamoyl)phenoxy)-6-chlorochroman-4-carboxylate] it was 192 nM.

For `O=C(NCCc1ccccc1-c1ccccc1)c1ccc(Oc2cc3c(cc2Cl)C(C(=O)O)CCO3)cc1` (stereo not drawn) [Example 92, Sodium 7-(4-(2-(biphenyl-2-yl)ethylcarbamoyl)phenoxy)-6-chlorochroman-4-carboxylate], under setting [1], the EC50 was determined as 111 nM. With `O=C(NCCc1ccccc1C1CC1)c1ccc(Oc2cc3c(cc2Cl)C(C(=O)O)CCO3)cc1` (stereo not drawn) [Example 93, Sodium 6-chloro-7-(4-(2-cyclopropylphenethylcarbamoyl)phenoxy)chroman-4-carboxylate], under setting [1], the EC50 was found to be 107 nM.

Take `O=C(NCCc1ccccc1-c1ccc(Cl)cc1)c1ccc(Oc2cc3c(cc2Cl)C(C(=O)O)CCO3)cc1` (stereo not drawn) [Example 94, Sodium 6-chloro-7-(4-(2-(4′-chlorobiphenyl-2-yl)ethylcarbamoyl)phenoxy)chroman-4-carboxylate]: the EC50 under setting [1] was 287 nM. On the same count and under the same terms, under `O=C(NCCc1ccccc1-c1cccc(Cl)c1)c1ccc(Oc2cc3c(cc2Cl)C(C(=O)O)CCO3)cc1` (stereo not drawn) [Example 95, Sodium 6-chloro-7-(4-(2-(3′-chlorobiphenyl-2-yl)ethylcarbamoyl)phenoxy)chroman-4-carboxylate] stands 91.8 nM; under `O=C(NCCc1ccccc1-c1ccccc1Cl)c1ccc(Oc2cc3c(cc2Cl)C(C(=O)O)CCO3)cc1` (stereo not drawn) [Example 96, Sodium 6-chloro-7-(4-(2-(2′-chlorobiphenyl-2-yl)ethylcarbamoyl)phenoxy)chroman-4-carboxylate], 40.2 nM; under `O=C(NCCc1ccc(F)cc1Cl)c1ccc(Oc2cc3c(cc2Cl)C(C(=O)O)CCO3)cc1` (stereo not drawn) [Example 97, Sodium 6-chloro-7-(4-(2-chloro-4-fluorophenethylcarbamoyl)phenoxy)chroman-4-carboxylate], 190 nM. With `O=C(NCCc1ccc(C(F)(F)F)cc1Cl)c1ccc(Oc2cc3c(cc2Cl)C(C(=O)O)CCO3)cc1` (stereo not drawn) [Example 98, Sodium 6-chloro-7-(4-(2-chloro-4-(trifluoromethyl)phenethylcarbamoyl)phenoxy)chroman-4-carboxylate], the EC50 under setting [1] came to 193 nM. Take `COc1ccc(CCNC(=O)c2ccc(Oc3cc4c(cc3Cl)C(C(=O)O)CCO4)cc2)c(Cl)c1` (stereo not drawn) [Example 100, Sodium 6-chloro-7-(4-(2-chloro-4-methoxyphenethylcarbamoyl)phenoxy)chroman-4-carboxylate]: under setting [1], the EC50 came to 619 nM. Still for that read-out and setting: in the case of `COc1cc(F)ccc1CCNC(=O)c1ccc(Oc2cc3c(cc2Cl)C(C(=O)O)CCO3)cc1` (stereo not drawn) [Example 101, Sodium 6-chloro-7-(4-(4-fluoro-2-methoxyphenethylcarbamoyl)phenoxy)chroman-4-carboxylate] it was 292 nM.

Usually EC50 stands for the concentration at which the effect is half-maximal.
